From paper PMC5548745, “Agonist-induced dimer dissociation as a macromolecular step in G protein-coupled receptor signaling” (Nature Communications, 2017) come the findings set out here.

The subject of one series is FZD6–FZD6 dimer. Kind of series: dcFRAP of V5-FZD6-mCherry/FZD6-GFP (FZD6 dimerization). Format: cell-based, human. The conditions noted are these: HEK293; co-transfection of V5-FZD6-mCherry, FZD6-GFP and minigene; N=43 TM1, N=66 TM5. How it is done: For dual color FRAP experiments, cells grown in four compartment 35 mm glass bottom dishes were washed three times with BE buffer[19] (150 mM NaCl, 2.5 mM KCl, 10 mM HEPES, 12 mM glucose, 0.5 mM CaCl2, and 0.5 mM MgCl2). Then, the cells were incubated at RT for 30 min with biotin-conjugated goat polyclonal anti-V5 antibody (Bethyl) diluted 1:100 in BE buffer supplemented with 2.5% bovine serum albumin. For antibody-mediated cross-linking, avidin was added and incubated for 15 min and washed two times with BE buffer before the experiments were performed. In Fig. 4, dcFRAP experiments are presented that employ chemical surface crosslinking to visualize assembly of FZD6 with DVL or heterotrimeric G proteins according to previously published protocols. Live cell imaging experiments were carried out using a Zeiss 710 laser scanning microscope. Images were acquired using a 40×, 1.2 NA C-Apochromat objective and the 488 nm and the 561 nm laser lines were used to excite GFP and mCherry fluorophores, respectively. Photobleaching was performed by 100% laser illumination of a 1.80 × 1.80 µm area placed over the cell plasma membrane. Fluorescence was measured pre- and post-bleach using low-intensity illumination for a total time period of 100 s. Average pixel intensity was measured using the ZEN2013 software, corrected for background fluctuations and bleaching artifacts and normalized to pre-bleached intensity. The recovered mobile fraction (F m) was calculated as follows: F m = (I P–I 0)/(I I–I 0), where I I is the initial intensity measured prior to bleaching, I 0 is the immediate fluorescence intensity post-bleaching and I P is intensity value post-bleaching. The mobile fraction was defined by the average of the fluorescence recovery assessed between time 85–101 s (including pre-bleach measurements). We excluded experiments in which the extracellularly tagged receptors were not sufficiently immobilized after the crosslinking procedure (cutoff at 40% crosslinking-induced reduction in mobile fraction). Kinetic determination of mobile fractions of crosslinked V5-FZD6-mCherry and FZD6-GFP with WNT stimulation over time were performed in one cell culture well. Measurements for each time point were performed on separate cells.
Statistical and graphical analysis was performed using Graph Pad Prism 5 software. Data were analyzed by two-tailed t-test or one-way ANOVA with Fisher’s least significant difference post hoc analysis. Curve fitting of FRAP data was done with a two-phase association nonlinear function using the least square fit. Data for receptor titration in the presence of C59 and output to P-ERK1/2 in Fig. 6h was fit to a linear regression model. All experiments were repeated at least three times in independent experiments (not representing technical replicates). For single cell analysis (dcFRAP), the number of the individual ROIs obtained from several cells in at least three independent experiments is provided in the figure legends. Data from individual ROIs are summarized for data presentation providing the sum of independent observations. Significance levels are given as: *P < 0.05; **P < 0.01; ***P < 0.001. Data in FRAP curves and bar graphs (FRAP) are presented as mean ± s.e.m.

Series [1] relates to HEK293 and MLE-12 cell membrane. Kind of series: immunocytochemistry of HA-tagged minigenes without permeabilization. Format: cell-based. To be noted: 4% paraformaldehyde, no permeabilization. The source says:
Supplementary Figure 7: Control experiments for assaying receptor dimerization by dcFRAP and expression of minigenes. (a) HEK293 and MLE-12 cells were transfected with HA-tagged TM1/5 minigenes, fixed in 4% paraformaldehyde and stained with an anti-HA antibody/Cy2-conjugated secondary antibody in the absence of cell permeabilization by detergents. […]
confirms both the membrane expression of the minigenes as well as the correct orientation of the peptides with the N-terminal signal sequence/HA tag on the extracellular side accessible to the primary antibody. Images were taken with a 40x objective using the 488 nm laser line on a Zeiss LSM 710 confocal microscope. Size bars – 10 µm. (b) Bar graph compares the immobile fraction in dcFRAP experiments of FZD6-GFP after CL of V5-FZD6-mCherry in cells expressing minigenes corresponding to either TM1 (control) or TM5 (competing at the dimer interface). P= […]
Error bars give s.e.m.; * P<0.05 (two-tailed t-test). (c) Transient transfection of TM5, […]
abrogation of dimer formation, in the presence of TM5, reduces receptor-mediated signaling. (d) Bar graph summarizes four independent immunoblotting experiments. P-ERK1/2 in TM1 expressing MLE-12 cells were normalized to 100%. […]
(§1) Quantification of P-ERK1/2 is normalized to β-actin as loading control. […] P-ERK1/2, HA-TM1/5 and β-actin as loading control were assessed by PAGE/immunoblotting. […]

Series [2] deals with ERK1/2 phosphorylation in MLE-12 cells. As to the kind of experiment: basal P-ERK1/2 immunoblot, MLE-12 cells expressing minigenes. To be noted: transient transfection of minigene. Format: cell-based, mouse. How it is done:
(§2) MLE-12 or HEK293 cells (ATCC) were plated in a 24- or 48-well plate at a density of 100,000 or 50,000 cells/well, respectively. After 24 h, cells were transfected using Lipofectamine 2000 according to the manufacturer’s instructions. Cells were stimulated (24 h post-transfection) with 300 ng ml^−1 recombinant carrier-free WNT-5A (CF WNT-5A; R&D Systems). Stimulation was stopped by the addition of lysis buffer (1% NP-40, 150 mM NaCl, 50 mM Tris/HCl pH 8). Lysates were sonicated and analyzed by 7.5 or 10% Mini-PROTEAN TGX precast polyacrylamide gels (Bio-Rad) and transferred to PVDF membranes using the Trans-Blot Turbo system (Bio-Rad). […] Proteins were detected with horseradish peroxidase-conjugated secondary antibodies (goat anti-rabbit and goat anti-mouse (Pierce)) and Clarity Western ECL Blotting Substrate (Bio-Rad). […]
as §1
In general terms: In western blotting, separated proteins are transferred to a membrane and probed.

Series [3] deals with protease-activated receptor (endogenous). Kind of series: thrombin-induced P-ERK1/2 in HEK293 cells with minigenes. The class given is cell-based. To be noted: thrombin 10 U/ml, 10 min.
For series [4], the system named is lysophosphatidic acid receptor (endogenous). As to the kind of experiment: lysophosphatidic acid-induced P-ERK1/2 in HEK293 cells with minigenes. The class given is cell-based. To be noted: lysophosphatidic acid 10 µM, 10 min. As to the method:
as §2, with “Cells were stimulated (24 h post-transfection) with 300 ng ml^−1 recombinant carrier-free WNT-5A (CF WNT-5A; R&D Systems).” left out
as §1

The target of the next series is T1, FZD6-TM4 (Homo sapiens, UniProt O60353).
T1 construct: purchased Pepscan Therapeutics (Lelystad, Netherlands); host or cells: chemical synthesis (Fmoc solid phase)
T1 sequence (O60353 with tags, fused parts or gaps limits assumed): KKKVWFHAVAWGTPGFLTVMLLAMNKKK
As to the kind of experiment: isothermal titration calorimetry of TM peptides. To be noted: 820 µM TM5 or TM5 mut into 165 µM TM4; 0.5% DDM; 20 °C; one set of sites. Format: binding. How it is done:
(§3) CD spectra were recorded using a J-810 spectropolarimeter (Jasco, Easton, MD, USA) in a 0.1 cm quartz cuvette. Far-UV CD spectra were collected over 190–260 nm. ITC measurements were carried out at 20 °C on an ITC (VP–ITC 200, MicroCal). 820 µM FZD6 TM5 and 165 µM FZD6 TM4 were dissolved in 0.5% DDM in water. 2 µl of TM5 peptide were injected into 260 µl TM4 during each titration. The ITC data were analyzed with the Origin 7.0 software.
(ITC needs no label: the signal is the heat of the interaction.)

In the next series the test system is TM4 peptide of FZD6. As to the kind of experiment: analytical size-exclusion chromatography of TM peptides. The class given is binding, human. The conditions noted are these: TDW + 0.01% DDM; 500 µM each peptide; Superdex 30; 0.8 ml min^−1; room temperature; 215 nm; 2 h incubation. How it is done: Analytical SEC was performed on an ÄKTA Explorer with a Superdex 30 analytical column (GE Healthcare) equilibrated with TDW + 0.01% DDM. Peptides were eluted with a flow rate of 0.8 ml min^−1 at room temperature. Elution profile was monitored by UV absorbance at 215 nm. For the binding experiments, the peptides were incubated together in TDW + 0.01% DDM at room temperature for 2 h.
In general terms: SEC sorts molecules by how far they enter the pores of the column.

Series [5] is described as follows: circular dichroism of synthetic TM peptides. The class given is physicochemical. As to the method:
as §3
Supplementary Figure 5: Circular dichroism (CD) and isothermal titration calorimetry (ITC) experiments for structural analysis of synthetic peptides resembling TM1, 4, 5 and mutant TM5 and of peptide-peptide interactions, related to Figure 3. Synthetic peptides (for sequence see Supplementary Fig. 9) resembling TM1 (a), 4 (b), 5 (c) and mutant TM5 (d) were used for CD experiments in triple distilled water with increasing DDM concentrations (0% DDM – black, 0.01% DDM – blue, 0.1% DDM – green and 0.5% DDM – red). (c)TM5 is unstructured in TDW and begins to gain structure at 0.1% DDM. It forms a clear α-helical structure in 0.5% DDM. The triple mutated TM5 (d) forms an α-helix in a much lower DDM concentration (0.01% DDM). […]

[6] abbreviates: CD, triple distilled water with 0, 0.01, 0.1, 0.5% DDM.

Entries after “also recorded” stand apart in the source; their conditions may differ.

Turning to “KKLDASRYFVLLPLCLCVFVGLSLLLAGIISKKK [TM5 minigene]”, the “effect of minigene on FZD6 dimer formation” value in the series with FZD6–FZD6 dimer was “perturbed dimer formation”. Besides, the “membrane expression and orientation (anti-HA staining)” value in series [1] was “Positive anti-HA staining in the cell membrane”. Also, the “effect on basal P-ERK1/2” value in series [2] was “reduced basal P-ERK1/2”. Also, the “effect on thrombin-induced P-ERK1/2” value in series [3] is “did not observe any difference in P-ERK1/2 induction”. Besides, the “effect on lysophosphatidic acid-induced P-ERK1/2” value in series [4] is reported as “did not observe any difference in P-ERK1/2 induction”.
As for “KKKSFIGTVSIFCLCATLFTFLTFLIKKK [TM1 minigene]”, the “membrane expression and orientation (anti-HA staining)” value in series [1] was “Positive anti-HA staining in the cell membrane”. In series [2], the “effect on basal P-ERK1/2” value is “did not affect basal ERK1/2 levels”. Besides, the “effect on thrombin-induced P-ERK1/2” value in series [3] is on record as “did not observe any difference in P-ERK1/2 induction”. In series [4], the “effect on lysophosphatidic acid-induced P-ERK1/2” value was “did not observe any difference in P-ERK1/2 induction”.
As for “KKLDASRYFVLLPLCLCVFVGLSLLLAGIISKKK [TM5, synthetic peptide of FZD6 transmembrane helix 5]”, the “ITC affinity (dissociation constant, K D) to TM4” value at FZD6-TM4 was “micromolar affinity; also recorded: in the micromolar range”. Besides, the “SEC elution volume in combination with TM4” value in the series with TM4 peptide of FZD6 was “eluted at a greater volume than TM4 and TM5 alone”. Besides, in series [5] (setting [6]), the “DDM concentration at which peptide begins to gain structure” value came to 0.1% and the “DDM concentration at which α-helix forms” value was 0.5%. In addition, the “secondary structure in detergent (CD)” value in series [5] (DDM detergent solution, lipophilic environment) is “structured and α-helical”. In addition, the “secondary structure in TDW (CD)” value in series [5] (triple distilled water, 0% DDM, 190–260 nm) is listed as “unstructured”.
